The target in this assay is EGFR (UniProt P00533). Description: Inhibition of EGFR Kinase Activity.

Structures are written as SMILES. Several values for one entry are separate records, joined by “and”; a condition that tells them apart may be missing. Equal entries are not always repeated.

Chain of EGFR (P00533 whole entry, looked up): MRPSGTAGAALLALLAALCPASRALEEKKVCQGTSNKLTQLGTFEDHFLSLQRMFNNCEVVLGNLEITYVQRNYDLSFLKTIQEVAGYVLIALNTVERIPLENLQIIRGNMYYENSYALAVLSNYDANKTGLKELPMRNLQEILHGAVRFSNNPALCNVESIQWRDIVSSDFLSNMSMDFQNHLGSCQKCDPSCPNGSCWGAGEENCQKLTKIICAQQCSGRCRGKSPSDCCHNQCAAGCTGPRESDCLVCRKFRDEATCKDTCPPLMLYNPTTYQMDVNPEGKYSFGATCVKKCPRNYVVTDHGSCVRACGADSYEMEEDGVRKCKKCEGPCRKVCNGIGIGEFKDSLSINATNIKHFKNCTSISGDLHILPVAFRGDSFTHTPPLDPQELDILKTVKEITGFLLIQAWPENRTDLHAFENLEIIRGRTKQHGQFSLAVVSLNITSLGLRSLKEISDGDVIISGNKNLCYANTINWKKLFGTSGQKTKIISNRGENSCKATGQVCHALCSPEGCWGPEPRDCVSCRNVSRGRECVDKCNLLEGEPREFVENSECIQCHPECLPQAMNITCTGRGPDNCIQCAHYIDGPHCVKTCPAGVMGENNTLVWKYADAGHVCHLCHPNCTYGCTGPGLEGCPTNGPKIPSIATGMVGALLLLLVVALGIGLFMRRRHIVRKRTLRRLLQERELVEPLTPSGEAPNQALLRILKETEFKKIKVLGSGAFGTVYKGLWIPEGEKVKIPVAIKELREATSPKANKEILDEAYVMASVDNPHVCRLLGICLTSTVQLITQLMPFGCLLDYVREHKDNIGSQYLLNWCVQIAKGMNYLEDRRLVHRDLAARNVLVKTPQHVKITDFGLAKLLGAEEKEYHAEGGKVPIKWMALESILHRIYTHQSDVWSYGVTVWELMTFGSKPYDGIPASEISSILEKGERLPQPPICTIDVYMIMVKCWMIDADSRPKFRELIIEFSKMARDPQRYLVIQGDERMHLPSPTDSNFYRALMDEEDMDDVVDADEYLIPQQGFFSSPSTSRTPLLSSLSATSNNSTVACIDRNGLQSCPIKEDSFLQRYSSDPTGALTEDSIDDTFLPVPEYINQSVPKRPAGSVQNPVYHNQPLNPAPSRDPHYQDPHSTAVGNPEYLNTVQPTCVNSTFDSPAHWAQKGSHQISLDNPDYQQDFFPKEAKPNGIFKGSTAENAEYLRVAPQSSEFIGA

With `Nc1ccc2ncnc(Nc3cccc(C(F)(F)F)c3)c2c1`, the IC50 amounted to 575 nM.

Turning to `Nc1ccc2c(Nc3ccccc3)ncnc2c1`, the IC50 turned out to be 100 nM.

Compound `CNc1cc2ncnc(Nc3cccc(Br)c3)c2cc1[N+](=O)[O-]` came in with a half-inhibitory concentration (IC50) of 69 nM.

In turn, `CNc1ccc2ncnc(Nc3cccc(Br)c3)c2n1` returned an IC50 of 3.1 nM.

For the compound `COc1cc2ncnc(Nc3ccc(Br)cc3)c2cc1OC`, the IC50 was found to be 0.97 nM.

As for `CN(C)c1ccc2ncnc(Nc3cccc(Br)c3)c2n1`, the IC50 is 9.7 nM.

With `OCCNN1=CC=C2N=CN=C(Nc3cccc(Br)c3)C2=C1`, the IC50 worked out at 0.2 nM.

As to `Nc1cc2ncnc(Nc3ccc(C(F)(F)F)cc3)c2cn1`, the half-inhibitory concentration (IC50) was 4780 nM.

`O=[N+]([O-])c1ccc2c(Nc3cccc(Cl)c3)ncnc2c1` had an IC50 of 812 nM.

Compound `O=[N+]([O-])c1cc2c(Nc3cccc(Br)c3)ncnc2cc1Cl` displayed an IC50 of 25 nM.

`Brc1cccc(NC2=NC=NC3=CC=N(NCCCn4ccnc4)C=C23)c1` showed an IC50 of 0.5 nM.

In turn, `Clc1cccc(Nc2ncnc3ccccc23)c1` registered an IC50 of 23.4 nM.

With `CN(C)c1cc2ncnc(Nc3cccc(Br)c3)c2cc1N`, the IC50 is 160 nM.

Compound `OCCN(CCO)N1=CC=C2N=CN=C(Nc3cccc(Br)c3)C2=C1` displayed a 50% inhibitory concentration (IC50) of 12 nM.

With `CN(C)CCCCCNN1=CC=C2N=CN=C(Nc3cccc(Br)c3)C2=C1`, the IC50 came out at 8.5 nM.

In turn, `Brc1cccc(Nc2ncnc3cnc(NCCc4c[nH]cn4)nc23)c1` gave an IC50 of 0.2 nM.

The compound `Fc1cccc(Nc2ncnc3ccccc23)c1` showed a concentration for half-maximal inhibition (IC50) of 56 nM.

`COc1ncc2ncnc(Nc3cccc(Br)c3)c2n1` had an IC50 of 3.8 nM.

As to `CCOc1cc2ncnc(Nc3cccc(Br)c3)c2cc1OCC`, the IC50 was determined as 0.006 nM.

The compound `CNc1ncc2ncnc(Nc3ccccc3)c2n1` registered an IC50 of 13 nM.

As for `Fc1cc2c(Nc3cccc(Br)c3)ncnc2cn1`, the IC50 is 125 nM.

The compound `COc1cc2ncnc(Nc3cccc(Br)c3)c2cc1[N+](=O)[O-]` yielded an IC50 of 15 nM.

With `Cc1cccc(Nc2ncnc3cnc(NCCc4c[nH]cn4)nc23)c1`, the IC50 was 3 nM.

`NNN1=CC=C2N=CN=C(Nc3cccc(Br)c3)C2=C1`: the IC50 was 7.2 nM.

Take `COc1ccc2c(Nc3cccc(Br)c3)ncnc2c1`: the IC50 stood at 10 nM.

For the compound `O=[N+]([O-])c1ccc2ncnc(Nc3cccc(Br)c3)c2c1`, the concentration for half-maximal inhibition (IC50) worked out at 912 nM.

`FC(F)(F)c1cccc(Nc2ncnc3ccccc23)c1` displayed an IC50 of 588 nM.

As for `CN1CCN(CCCNN2=CC=C3N=CN=C(Nc4cccc(C)c4)C3=C2)CC1`, the IC50 worked out at 5.6 nM.

In turn, `CN(C)CCCNN1=CC=C2N=CN=C(Nc3cccc(Br)c3)C2=C1` displayed a half-maximal inhibitory concentration (IC50) of 8.9 nM.

On to `COc1cc2ncnc(Nc3cccc(Br)c3)c2cc1N`, for which the IC50 came to 3.8 nM.

Take `Oc1ccc2c(Nc3cccc(Br)c3)ncnc2c1`: the IC50 was determined as 4.7 nM.

Regarding `OC(=O)CNN1=CC=C2N=CN=C(Nc3cccc(Br)c3)C2=C1`, the IC50 is 1.5 nM.

`O=[N+]([O-])c1ccc2c(Nc3cccc(I)c3)ncnc2c1` returned an IC50 of 549 nM.

`Cc1cccc(Nc2ncnc3ccccc23)c1` gave an IC50 of 912 nM.

`Nc1cc2ncnc(Nc3cccc(F)c3)c2cn1` registered an IC50 of 850 nM.

`CN(CC(O)CO)N1=CC=C2N=CN=C(Nc3cccc(Br)c3)C2=C1` registered an IC50 of 3.2 nM.

Regarding `COc1ccc2ncnc(Nc3cccc(Br)c3)c2c1`, the IC50 amounted to 354 nM.

As for `CN(C)c1ccc2c(Nc3cccc(Br)c3)ncnc2n1`, the IC50 stood at 330 nM.

On to `Nc1cc2ncnc(Nc3ccccc3Br)c2cn1`, for which the IC50 was 245 nM.

In the case of `Fc1cc2ncnc(Nc3cccc(Br)c3)c2cn1`, the 50% inhibitory concentration (IC50) was 13 nM.

In turn, `CN(C)CCNN1=CC=C2N=CN=C(Nc3cccc(Br)c3)C2=C1` had a half-inhibitory concentration (IC50) of 45 nM.

For the compound `CNc1ncc2ncnc(Nc3cccc(Br)c3)c2n1`, the IC50 came to 0.7 nM.

With `Cc1cccc(Nc2ncnc3cnc(NCCN4CCOCC4)nc23)c1`, the IC50 amounted to 2.3 nM.

The compound `CN(C)CCCCNN1=CC=C2N=CN=C(Nc3cccc(Br)c3)C2=C1` showed an IC50 of 7.4 nM.

In turn, `Nc1cc2ncnc(Nc3ccccc3N)c2cn1` had an IC50 of 5370 nM.

`OCCN(CCO)CCCNN1=CC=C2N=CN=C(Nc3cccc(Br)c3)C2=C1` gave an IC50 of 1.2 nM.

On to `Cc1cccc(NC2=NC=NC3=CC=N(NCCCn4ccnc4)C=C23)c1`, for which the IC50 came to 3.5 nM.

`Clc1ncc2ncnc(Nc3cccc(Br)c3)c2n1` displayed an IC50 of 83 nM.

Take `Brc1cccc(Nc2ncnc3ccccc23)c1`: the IC50 was 27.5 nM.

`OC(=O)CCNN1=CC=C2N=CN=C(Nc3cccc(Br)c3)C2=C1` gave an IC50 of 0.6 nM.

The compound `Brc1cccc(NC2=NC=NC3=CC=N(NCCCCN4CCOCC4)C=C23)c1` showed an IC50 of 5.4 nM.

For `COc1cc2ncnc(Nc3ccccc3)c2cc1OC`, the IC50 was found to be 29 nM.

On to `CN(C)CCN(C)N1=CC=C2N=CN=C(Nc3cccc(Br)c3)C2=C1`, for which the IC50 came to 40 nM.

`Cc1cccc(Nc2ncnc3cnc(N)nc23)c1` returned an IC50 of 17 nM.

The compound `CC(=O)Nc1cc2ncnc(Nc3cccc(Br)c3)c2cn1` came in with a half-inhibitory concentration (IC50) of 29 nM.

With `CNc1cc2ncnc(Nc3cccc(Br)c3)c2cc1N`, the 50% inhibitory concentration (IC50) is 0.69 nM.

On to `Brc1cccc(NC2=NC=NC3=CC=N(NCCc4c[nH]cn4)C=C23)c1`, for which the IC50 was determined as 0.9 nM.

In turn, `COc1cc2ncnc(Nc3cccc(C(F)(F)F)c3)c2cc1OC` yielded a concentration for half-maximal inhibition (IC50) of 0.24 nM.

The compound `CN(CC(=O)O)N1=CC=C2N=CN=C(Nc3cccc(Br)c3)C2=C1` had an IC50 of 16 nM.

Compound `Nc1cc2ncnc(Nc3ccccc3)c2cn1` displayed an IC50 of 251 nM.

In turn, `O=[N+]([O-])c1ccc2c(Nc3cccc(Br)c3)ncnc2c1` had an IC50 of 1000 nM.

`Nc1ccc2ncnc(Nc3ccccc3)c2c1` had a 50% inhibitory concentration (IC50) of 776 nM.

Compound `COc1ccc2c(Nc3cccc(Br)c3)ncnc2n1` had an IC50 of 260 nM.

`OC(=O)CCCNN1=CC=C2N=CN=C(Nc3cccc(Br)c3)C2=C1` came in with an IC50 of 0.2 nM.

With `Brc1cccc(Nc2ncnc3cnc(NCCn4ccnc4)nc23)c1`, the IC50 was 2.3 nM.

The compound `Nc1cc2ncnc(Nc3cccc(O)c3)c2cn1` showed an IC50 of 70 nM.

In the case of `COc1cc2ncnc(Nc3cccc(I)c3)c2cc1OC`, the IC50 is 0.89 nM.

Take `Brc1cccc(NC2=NC=NC3=CC=N(NCCCN4CCOCC4)C=C23)c1`: the IC50 came out at 1.9 nM.

`OCN(CO)N1=CC=C2N=CN=C(Nc3cccc(Br)c3)C2=C1` registered an IC50 of 14 nM.

Compound `CN(C)c1ccc2ncnc(Nc3cccc(Br)c3)c2c1` came in with an IC50 of 85 nM.

The compound `CNc1ccc2ncnc(Nc3cccc(Br)c3)c2c1` gave an IC50 of 4 nM.

Take `COc1cc2c(Nc3cccc(Br)c3)ncnc2cn1`: the IC50 worked out at 2.6 nM.

Compound `Cc1cccc(Nc2ncnc3cnc(Cl)nc23)c1` displayed a half-maximal inhibitory concentration (IC50) of 380 nM.

On to `COc1ccccc1Nc1ncnc2cc(N)ncc12`, for which the IC50 was 3710 nM.

`CN(C)c1ccc2c(Nc3cccc(Br)c3)ncnc2c1` came in with an IC50 of 11 nM.

For the compound `COc1cc2ncnc(Nc3cccc(Br)c3)c2cn1`, the IC50 amounted to 39 nM.

Turning to `Nc1ccc2ncnc(Nc3cccc(Br)c3)c2n1`, the IC50 was 7.7 nM.

`CCCOc1cc2ncnc(Nc3cccc(Br)c3)c2cc1OCCC` had an IC50 of 0.17 nM.

`CC(=O)Nc1ccc2c(Nc3cccc(Br)c3)ncnc2c1` registered an IC50 of 40 nM.

`Brc1cccc(NC2=NC=NC3=CC=N(NCCN4CCOCC4)C=C23)c1` had an IC50 of 3.2 nM.

`OCC(O)CNN1=CC=C2N=CN=C(Nc3cccc(Br)c3)C2=C1` came in with an IC50 of 0.9 nM.

As for `Clc1cc2c(Nc3cccc(Br)c3)ncnc2cn1`, the IC50 amounted to 40 nM.

The compound `Nc1cc2c(Nc3cccc(Br)c3)ncnc2cc1Cl` displayed an IC50 of 6.6 nM.

As to `OS(=O)(=O)CCNN1=CC=C2N=CN=C(Nc3cccc(Br)c3)C2=C1`, the IC50 came to 1.4 nM.

For `Nc1cc2ncnc(Nc3cccc(Br)c3)c2cc1N`, the IC50 was 0.12 nM.

Turning to `CN(CCO)N1=CC=C2N=CN=C(Nc3cccc(Br)c3)C2=C1`, the IC50 was determined as 2.6 nM.

As to `Oc1cc2ncnc(Nc3cccc(Br)c3)c2cc1O`, the IC50 was 0.17 nM.

Regarding `CN(C)c1cccc(Nc2ncnc3cc(N)ncc23)c1`, the IC50 was found to be 1810 nM.

`Brc1cccc(Nc2ncnc3cnc(NCCN4CCOCC4)nc23)c1` gave a half-maximal inhibitory concentration (IC50) of 0.8 nM.

`CN(C)c1ccc(Nc2ncnc3cc(N)ncc23)cc1` came in with an IC50 of 4890 nM.

Turning to `COc1ccc(Nc2ncnc3cc(N)ncc23)cc1`, the IC50 turned out to be 670 nM.

As to `COc1ccc2ncnc(Nc3ccccc3)c2c1`, the IC50 is 56 nM and 120 nM.

Regarding `CN1CCN(CCCNN2=CC=C3N=CN=C(Nc4cccc(Br)c4)C3=C2)CC1`, the IC50 worked out at 5 nM.

For the compound `CN(C)CCCCNN1=CC=C2N=CN=C(Nc3cccc(C)c3)C2=C1`, the half-maximal inhibitory concentration (IC50) worked out at 5.4 nM.

Consider `Nc1ncc2ncnc(Nc3cccc(Br)c3)c2n1`, for which the IC50 came out at 1.5 nM.

Regarding `Cc1cccc(Nc2ncnc3cnc(N(C)C)nc23)c1`, the IC50 was found to be 4 nM.

`Nc1cc2ncnc(Nc3cccc(Br)c3)c2cn1`: the IC50 was determined as 10 nM.

The compound `Ic1cccc(Nc2ncnc3ccccc23)c1` showed an IC50 of 81 nM.

For the origin of these results see the Kinase Knowledgebase extract (Sharma et al. 2016).
